We go through six compounds from PMC6427912 (Journal of medicinal chemistry, 2019).

Molecules are shown by their SMILES. pIC50: −log10 of the molar value. ≈ marks a conversion by molar mass, not a printed value. Where “and” joins values, the source holds several entries; their conditions need not be identical. Equal entries are not always repeated. Where two headings read alike, the source gives them in different places.

The subject of series [1] is B. subtilis. Description: B. subtilis growth inhibition assay. In kind it is cell-based, Bacillus subtilis.
The subject of series [2] is B. anthracis Sterne. In kind it is cell-based, Bacillus anthracis. The settings on record: B. anthracis Sterne growth inhibition.
The test system of series [3] is S. aureus. Description: S. aureus growth inhibition assay. In kind it is cell-based, Staphylococcus aureus. To be noted: for Sa ED50: S. aureus growth inhibition.
The test system of series [4] is Mycobacterium smegmatis. Description: M. smegmatis growth inhibition assay. It counts as cell-based.
Series [5] is described as follows: HEK293 cell growth inhibition assay. In kind it is cell-based, human. The settings on record: human, HEK293 cells.
In series [6] the test system is HEK293 cells. The series can be described thus: HEK293 cell growth inhibition assay. In kind it is cell-based, human. To be noted: for HEK 293: HEK293 cell growth inhibition ED50, 24 hr incubation; for HEK293 toxicity (ED50): 96 hours incubation.
In series [7] the target is EcOPPS (E. coli octaprenyl diphosphate synthase) (Escherichia coli, UniProt P0AD57). The series can be described thus: OPPS enzyme inhibition assay. In kind it is biochemical. The settings on record: IC50 against EcOPPS.
For series [8], the target named is SaHepPPS (S. aureus heptaprenyl diphosphate synthase) (Staphylococcus aureus, UniProt Q2FYG6). Description: HepPPS enzyme inhibition assay. It counts as biochemical. To be noted: IC50 against SaHepPPS.
Series [9] deals with T1, HsFPPS (human farnesyl diphosphate synthase) (Homo sapiens, UniProt P14324).
T1 sequence (P14324 1-419): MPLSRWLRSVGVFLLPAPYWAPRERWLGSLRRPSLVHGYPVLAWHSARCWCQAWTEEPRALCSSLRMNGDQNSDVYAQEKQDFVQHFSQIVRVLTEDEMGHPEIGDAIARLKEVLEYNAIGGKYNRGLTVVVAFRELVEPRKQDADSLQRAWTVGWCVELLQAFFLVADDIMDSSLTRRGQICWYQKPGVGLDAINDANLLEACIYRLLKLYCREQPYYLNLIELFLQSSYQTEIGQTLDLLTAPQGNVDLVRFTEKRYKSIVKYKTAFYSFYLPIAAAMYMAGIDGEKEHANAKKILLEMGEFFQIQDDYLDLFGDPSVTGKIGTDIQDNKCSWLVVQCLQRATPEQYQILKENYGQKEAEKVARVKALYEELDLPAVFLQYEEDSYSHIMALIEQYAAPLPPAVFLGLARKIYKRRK
Description: FPPS enzyme inhibition assay. In kind it is biochemical.

Series [10] concerns B. subtilis. The series can be described thus: B. subtilis cell growth inhibition rescue assays. In kind it is cell-based, Bacillus subtilis.
For series [11], the target named is EcUPPS (Escherichia coli, UniProt P60472). Description: UPPS enzyme inhibition assay. It counts as biochemical, E. coli.
In series [12] the test system is B. subtilis. The series can be described thus: B. subtilis serum binding assay. In kind it is cell-based, Bacillus subtilis.
Series [13] concerns B. subtilis. The settings on record: cited from earlier work.
Series [14] has as its system P. aeruginosa FPPS. The settings on record: read-out: activity against P. aeruginosa FPPS; cited from earlier work.
The test system of series [15] is E. faecalis. To be noted: cited from earlier work.
In series [16] the test system is E. faecium. The settings on record: cited from earlier work.

Sequence of EcUPPS (P60472 whole entry): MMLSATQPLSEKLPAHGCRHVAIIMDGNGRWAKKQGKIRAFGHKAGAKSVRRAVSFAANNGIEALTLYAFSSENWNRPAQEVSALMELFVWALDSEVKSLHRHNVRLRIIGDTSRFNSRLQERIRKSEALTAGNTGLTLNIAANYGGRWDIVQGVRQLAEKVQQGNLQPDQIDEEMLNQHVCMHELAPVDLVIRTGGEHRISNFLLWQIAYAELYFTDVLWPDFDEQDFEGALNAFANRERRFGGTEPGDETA
Sequence of EcOPPS (E. coli octaprenyl diphosphate synthase) (P0AD57 whole entry): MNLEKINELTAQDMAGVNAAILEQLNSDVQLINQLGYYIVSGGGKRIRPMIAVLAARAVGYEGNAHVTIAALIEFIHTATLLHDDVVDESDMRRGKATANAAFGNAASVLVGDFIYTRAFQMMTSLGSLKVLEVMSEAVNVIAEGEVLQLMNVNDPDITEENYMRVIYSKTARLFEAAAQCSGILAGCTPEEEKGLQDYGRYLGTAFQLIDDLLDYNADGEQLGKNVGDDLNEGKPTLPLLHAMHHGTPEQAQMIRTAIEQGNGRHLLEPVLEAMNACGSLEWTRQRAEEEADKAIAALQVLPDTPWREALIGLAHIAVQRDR

Regarding `CC(C)CCCC(C)CCCc1cc[n+](CC(P(=O)([O-])O)P(=O)(O)O)cc1` (stereo not shown) [Compound 80, Hydrogen(2-(4-(4,8-dimethylnonyl)pyridin-1-ium-1-yl)-1-phosphonoethyl) phosphonate], the “Bs ED50” value came to 3.1 µg/mL in [1] (12 hours) and 7.4 µM in [1] (value in parentheses). The “Ba ED50” value in series [2] was determined as 2.2 µg/mL; in [2] (value in parentheses), 5.2 µM. Besides, the “Sa ED50” value turned out to be 21 µg/mL in series [3] and 50 µM in series [3] (value in parentheses). Further, the “Ms ED50” value in series [4] (48 hours) was determined as 7.2 µg/mL; in series [4] (value in parentheses) it was 17 µM. In [5], this compound had a pIC50 of around 3.00. Further, the “HEK 293” value in series [6] was determined as 295 µg/mL; in series [6] (value in parentheses), 700 µM.

Consider `O=P(O)(O)C(O)(Cc1cccc(-c2cccc3c2oc2ccccc23)c1)P(=O)(O)O` [Compound 69], for which the “Sa ED50” value in series [3] (value in parentheses) came to 19 µM. Moreover, the values for the pIC50 in series [7] and in series [8] were around 3.48 and 5.70 to 6.00, respectively.

`CC(C)CCCC(C)CCOc1ccc[n+](CC(P(=O)([O-])O)P(=O)(O)O)c1` (stereo not shown) [Compound 74, Hydrogen(2-(3-((3,7-dimethyloctyl)oxy)pyridin-1-ium-1-yl)-1-phosphonoethyl) phosphonate]: in [1] (value in parentheses), the “Bs ED50” value came out at 2.4 µM. The “Ba ED50” value in [2] was determined as 2.3 µg/mL; in series [2] (value in parentheses), 5.4 µM. For the same compound, the “Sa ED50” value in [3] came out at 14 µg/mL; in series [3] (value in parentheses) it was 33 µM. The figures for the “Ms ED50” value in series [4] (48 hours) and in series [4] (value in parentheses) were 5.9 µg/mL and 14 µM, respectively. Besides, in series [6], the “HEK293 toxicity (ED50)” value was 76 µM and ~ 70 µM. The “HEK 293” value in [6] was 262 µg/mL. Further, in [6] (after 24 hrs), the HEK293 toxicity is reported as ~ 0.5 mM. Also, in [9], the pIC50 was 6.70 and ~6.70. In series [10] (50 µM HMBPP), the “increase in ED50 for B. subtilis growth inhibition, rescue by HMBPP” value is ~ 2 x. Moreover, the “increase in ED50 for B. subtilis growth inhibition, rescue by MK-4” value in [10] (50 µM MK-4) was ~ 5 x. Also, the “inhibition of UPPS” value in [11] is recorded as “no inhibition”. Further, in [12] (4% or 10% fetal bovine serum), the “effect of serum on B. subtilis growth inhibition” value is reported as “little effect”.

As to `O=P([O-])(O)C(Cn1cc[n+](CCCc2ccc(F)c(F)c2)c1)P(=O)(O)O` (stereo not shown) [Compound 72, reference compound], in series [6], the “HEK293 toxicity (ED50)” value is on record as 13 µM. Besides, the “increase in ED50 with 10% serum” value in series [12] (B. subtilis, 10% serum) turned out to be 50%. Besides, in series [13], the “activity against B. subtilis” value is above 100 µg/mL. Also, the pIC50 in series [14] is 6.70 to 7.00.

Regarding `CCCCCCCCCCCCCCOc1cccc(O)c1C(=O)O` [Compound 70], the pIC50 in series [3] (Staphylococcus aureus, read-out: IC50 for S. aureus cell growth inhibition) is 4.72; in series [8], 5.70 to 6.00. Further, the “MIC E. faecalis cell growth” value in series [15] is given as 4 µg/mL (≈ 11.4 µM). The “MIC E. faecium cell growth” value in series [16] is recorded as 4 µg/mL (≈ 11.4 µM).

Turning to `CC(C)CCCC(C)CCOc1cc[n+](CC(P(=O)([O-])O)P(=O)(O)O)cc1` (stereo not shown) [Compound 84, Hydrogen (2-(4-((3,7-dimethyloctyl)oxy)pyridin-1-ium-1-yl)-1-phosphonoethyl) phosphonate], the “Bs ED50” value in [1] (value in parentheses) turned out to be 14 µM. For the same compound, the “Ba ED50” value amounted to 2.5 µg/mL in series [2] and 5.9 µM in series [2] (value in parentheses). The “Sa ED50” value in series [3] (value in parentheses) stood at 66 µM. Moreover, the “Ms ED50” value in [4] (48 hours) was 150 µg/mL; in series [4] (value in parentheses) it was 350 µM. In addition, the pIC50 in [5] was around 3.00. Also, the results for the “HEK 293” value in series [6] and in series [6] (value in parentheses) were 420 µg/mL and 1000 µM, respectively.
